Data as given in patent publication US8716231B2, “Use of benzo-fused heterocycle sulfamide derivatives for the treatment of pain” (Janssen Pharmaceutica NV, priority 2005, dated 2014).

How the values were obtained:
[1] = test system: formalin-induced inflammatory-mediated pain response (licking of injected hind-paw); test: Mouse Formalin Assay (NINDS); type: in vivo, mice
Protocol: The mouse formalin test is an acute and chronic model for testing the ability of a test compound for the treatment of pain.
In the Mouse Formalin Test, 0.5% formalin was injected s.c. into the plantar region of the hind-paw of adult male mice to induce an inflammatory-mediated pain response. Pain was expressed as licking of the injected area in a bi-modal manner—acute and chronic phase. The acute phase occurred immediately and lasted approximately […] post-injection, representing direct stimulation of pain fibers. Licking behavior resumes approximately 10 mins later (˜20 min post injection) and lasted 10-15 min, representing the chronic phase hypothesized to be caused by the release of inflammatory mediators such as cytokines.
Activity in the acute phase of the formalin test is an indicator of acute pain believed to correlate with peripheral pain pathways.
Compound #8 was evaluated in the Mouse Formalin Test as described above. […] For the acute phase the decrease was 52% from control (p<0.01), while for the chronic phase the decrease was 43% from control (p<0.01).

[2] = test system: spontaneous locomotor activity; test: Taxol Induced Peripheral Neuropathy Model (pilot), Open Field testing; type: in vivo, Sprague-Dawley rats; conditions: 100 mg/kg po daily + Taxol, Day 11
[3] = test system: paclitaxel-evoked mechano-allodynia and mechano-hyperalgesia; test: Taxol Induced Peripheral Neuropathy Model (longer term study, Example 20); type: in vivo, Sprague-Dawley rats
Protocol: Paclitaxel (Taxol®, Bristol-Myers-Squibb; 6 mg/ml in a 50:50 mixture of Cremophor and ethanol) was diluted just before use with saline to a concentration of 2 mg/ml and injected IP in a volume of 1 ml/kg) on four alternate days (D0, D2, D4, and D6).
Adult male Sprague-Dawley rats (Harlan, Indianapolis, Ind.; Frederick, Md. breeding colony) were caged on sawdust bedding in groups of 3-4 with food and water available ad libitum and a 12:12 hr light-dark cycle.
Group 3 was treated with an equal volume of vehicle, daily, starting on D0 (the same day as the beginning of paclitaxel dosing).
The animals were habituated to the testing environment on three separate days and then three daily baseline sessions were given to measure the normal response rate to stimulation with von Frey hairs exerting 4 g or 15 g of pressure (4 gVFH and 15 gVFH). Normal rats rarely, if ever, withdraw from stimulation with 4 gVFH; thus, a post-paclitaxel increase in responding to this stimulus is indicative of mechano-allodynia. Normal rats withdraw from stimulation with 15 gVFH 10-20% of the time; thus an increased response frequency to this stimulus is indicative of mechano-hyperalgesia.
The animals were positioned beneath upturned plastic mouse cages atop an elevated platform with wire-mesh flooring. Each VFH was applied to the glabrous skin of the mid-heel and the presence or absence of a withdrawal response was noted. This was repeated 5 times on each hind paw and the animal's responses were summarized as a percent response score (e.g., 5 withdrawal responses to 15gVFH stimulation would yield a score of 50%). Behavior was assessed by an observer who was blind as to group assignment.
Behavioral tests for paclitaxel's effects began on day 13 (D13) and were repeated on D15, D17, D21, D24, D28, D31, D35 and D38. […] For these days the drug was given at 0900 h and behavioral tests began at 1300 h. Significant paclitaxel-evoked mechano-allodynia and mechano-hyperalgesia were expected to develop 10-14 days after the last injection of paclitaxel.

[4] = test system: CFA induced thermal hypersensitivity (radiant heat paw withdrawal latency); test: Complete Freund's Adjuvant (CFA)-induced Model of Inflammatory Pain; type: in vivo, Sprague-Dawley rats; conditions: 560 mg/kg oral; 4 hr after oral administration
Protocol: Intraplantar injection of CFA in rats results in a long-lasting inflammatory reaction, characterized by edema and a pronounced hypersensitivity to both thermal and mechanical stimuli. This hypersensitivity peaks between 24-72 hours after injection and can last for several weeks. This assay predicts the analgesic, antiallodynic and/or antihyperalgesic effect of test compounds.
Test compound and controls were dissolved in the appropriate volume of 0.5% HPMC or 10% solutol in 0.5% hydoxypropyl methylcellulose (HPMC). Solutions were prepared to provide the final dose in a volume of 2.5 mL/kg or 5 mL/kg p.o. for rats. Male, Sprague-Dawley rats from Charles Rivers Laboratories (Portage, Me.), weighing between 250 and 350 grams at the time of study, were used for the CFA paw radiant heat studies.
Rats in the CFA study were moved to a testing room the day of the CFA injection, where they remained for the duration of the study. […]
On the day of study, rats were given a 100 μL (1 μg/μL) intraplantar injection of CFA (1:1 CFA:saline) into their left hindpaw. […] Percent Reversal of hyperalgesia was calculated for each animal as [(treatment response)−(post-CFA response)]/[(pre-CFA response)−(post-CFA response)]×100. Average % reversal of hyperalgesia was then calculated for each treatment group (n=5-6 rats/group). […]

[5] = 110 mg/kg, i.p. 15 min prior to formalin injection, p<0.01
[6] = both 60 mg/kg and 120 mg/kg PO daily for 20 days from D0, paclitaxel 2 mg/kg IP D0, D2, D4, D6

Compound	chronic phase decrease from control ([1]; 60 mg/kg i.p., p<0.01)	acute phase decrease from control ([1]; 60 mg/kg i.p., p<0.05)	acute phase decrease from control [1, 5]	chronic phase decrease from control [1, 5]	vertical rearing (Open Field) ([2]; p<0.05)	horizontal movement (Open Field) ([2]; vs Taxol alone)	continuation of suppressive effect after the last injection ([3]; 60 mg/kg and 120 mg/kg PO daily)	side-effects ([3]; 60 mg/kg and 120 mg/kg PO daily for 20 days)	development of mechano-allodynia (4 gVFH test) [3, 6]	development of mechano-hyperalgesia (15 gVFH test) [3, 6]	peak reversal of thermal hypersensitivity (compared with the 24-hr post-CFA baseline) [4]
NS(=O)(=O)NC[C@H]1COc2cc(Cl)ccc2O1 [Compound #8, (2S)-(−)-N-(6-Chloro-2,3-dihydro-benzo[1,4]dioxin-2-ylmethyl)-sulfamide]	40%	30%	52%	43%	decreased vertical rearing compared to Taxol® alone	no difference between treatment groups	approximately 11 days	no apparent side-effects	suppressed the development of mechano-allodynia and mechano-hyperalgesia	suppressed the development of mechano-allodynia and mechano-hyperalgesia	86.0%
NCC1(CC(=O)O)CCCCC1 [gabapentin, reference compound]											68.6%
